Measured values as given in US8741929B2, “Methods using 3-(4-amino-1-oxo-1,3-dihydro-isoindol-2-yl)-piperidine-2,6-dione for treatment of mantle cell lymphomas” (Celgene Corporation, priority 2006, dated 2014).
Where “and” joins values, the source holds several entries; their conditions need not be identical. Identical values can stand only once.

Columns and labels:
[1] = system: relapsed and refractory aggressive non-Hodgkin's lymphoma (NHL); assay: Phase II study of oral lenalidomide monotherapy in patients; assay type: in vivo, human
Protocol: A multi-center, open-label, Phase II study was conducted in patients with relapsed and refractory aggressive non-Hodgkin's lymphoma (NHL). […] Patients in the study received lenalidomide in an amount of 25mg orally once daily for days one to 21 in a 28-day cycle and continued therapy for 52 weeks as tolerated or until disease progression.
Twenty-five patients age 45 to 80 years (median age 63), with relapsed and refractory aggressive NHL, and who had received a median of 2.5 prior treatments (range: 1-6 prior treatments), were administered with lenalidomide in an amount of 25 mg orally once daily for 21 days in the treatment cycle. Sixteen patients with aggressive NHL were evaluable for tumour assessment. Of the 16 patients, eight had diffuse large cell lymphoma, three had mantle cell lymphoma, two patients had follicular lymphoma, one had transformed lymphoma, and two had aggressive lymphoma of unknown histology.

[2] = system: relapsed or refractory mantle cell lymphoma (MCL)
Protocol: A single-center, open label, phase I/II study was conducted to determine the maximum tolerated dose (MTD) and to evaluate the efficacy of 3-(4-amino-1-oxo-1,3-dihydro-isoindol-2-yl)-piperidin-2,6-dione (lenalidomide or Revlimid®) in combination with rituximab for relapsed or refractory mantle cell lymphoma (MCL). Patients with one to four lines of prior therapy were eligible. Patients with prior treatment using thalidomide or rituximab, regardless of resistance, were eligible. […] A standard phase I dose escalation was used to determine MTD with dose levels at 10 mg, 15 mg, 20 mg, and 25 mg of Revlimid®. Dose-limiting toxicity (DLT) was defined as grade 3 or 4 non-hematologic or grade 4 hematologic toxicity during the first cycle.
Each cohort had 3 patients. […] The number of cycles given ranged from one to five cycles.

[3] = 25 mg daily, 21/28 days, 16 evaluable patients
[4] = 25 mg orally once daily days 1-21 of 28-day cycle, 16 evaluable patients
[5] = first cycle, + rituximab, number of patients/events

## Nc1cccc2c1CN(C1CCC(=O)NC1=O)C2=O (centres unmarked) [Revlimid®, 3-(4-amino-1-oxo-1,3-dihydro-isoindol-2-yl)-piperidine-2,6-dione]
[1]; [3]
  complete response: One
  partial responses: four
  stable disease: Four
[1]; 25 mg daily, 21/28 days, of 22 patients
  Grade 4 adverse reaction: three
[1]; 25 mg daily, 21/28 days, predominately haematological and Grade 3
  Grade 3 and 4 adverse events: ten of 22
[1]; [4]
  objective responses: five
  objective responses (rate): 31 per cent
[1]; after a median follow-up of two months (range one to seven months)
  disease progression: Seven
[1]; one patient with diffuse large cell lymphoma, complete response
  progression free survival: more than 180 days
[1]; one patient with follicular lymphoma, partial response
  progression free survival: more than 55 days
[1]; one patient with mantle cell lymphoma, partial response
  progression free survival: more than 57 days
[1]; single patients with diffuse large cell lymphoma, partial response, listed as lenalidomide
  progression free survival: 135 days and 242 days
[2]; at cycle 3 and cycle 5, respectively, + rituximab, seven evaluable
  stable disease: Two
[2]; dose levels up to 20 mg Revlimid + rituximab 375 mg/m^2 weekly
  maximum tolerated dose (MTD): the MTD has not been reached
[2]; during cycle 2, + rituximab, number of events
  grade 3 toxicity (thrombocytopenia) beyond the first cycle: 1
[2]; first cycle, + rituximab
  grade 2 anemia: one
[2]; [5]
  Grade 1 hematologic events: anemia: 1
  Grade 1 hematologic events: leukopenia: 3
  Grade 1 hematologic events: thrombocytopenia: 2
  Grade 1 non-hematologic toxic events: fatigue: 4
  Grade 1 non-hematologic toxic events: myalgias: 2
  Grade 1 non-hematologic toxic events: pruritis: 3
  Grade 1 non-hematologic toxic events: stomatitis: 3
  Grade 2 non-hematologic toxic events: myalgias: 2
  Grade 2 non-hematologic toxic events: rash: 2
[2]; particularly relapsed or refractory mantle cell lymphoma
  study conclusion on efficacy: effective in treating mantle cell lymphoma
